pEC50: −log10 of the molar value.
Experiments:
[1] = tested on: Human immunodeficiency virus 1; experiment: microbe, parasite or virus in culture; assay type: functional, organism-based; conditions: Human immunodeficiency virus 1, 3B, CCRF-CEM
Description: Antiviral activity against HIV1 3B infected in human CEM/0 cells assessed as inhibition of viral-induced giant cell formation incubated for 4 to 5 days by microscopy

[2] = Cytotoxicity in human CEM/0 cells assessed as reduction in cell viability incubated for 4 to 5 days
[3] = Stability in human CEM/0 cell extracts assessed as hydrolysis half life by HPLC analysis; assay type: ADME, CCRF-CEM
[4] = tested on: pig liver esterase; experiment: Stability in pH 7.3 PBS assessed as pig liver esterase mediated hydrolysis by measuring half life by HPLC analysis; assay type: ADME, Sus scrofa
[5] = Stability in aqueous 25 mM PBS at pH 7.3 assessed as hydrolysis half life by HPLC analysis; assay type: physicochemical

Compound	pEC50 [1]	CC50 ([2]; CEM/0 cells) [µM]	half-life [3] [h]	half-life [4] [h]	half-life [5] [h]	CC50 ([2]; ccrf-cem) [µM]
Cc1cn([C@@H]2C[C@H](CO)[C@@H](O)C2)c(=O)[nH]c1=O	4.44	> 250				
CCCCCCCCCCCCCCCCOC(=O)Oc1ccc(COP(=O)(OCc2ccc(OC(=O)CCCC)cc2)OP(=O)(O)OP(=O)(O)OC[C@H]2O[C@@H](n3cc(/C=C/Br)c(=O)[nH]c3=O)C[C@@H]2O)cc1.N.N (some centres not stated)	5.83	43	1.31	7	62	
CCCCCCCCCCCCCCCCOC(=O)Oc1ccc(COP(=O)(OCc2ccc(OC(=O)CC)cc2)OP(=O)(O)OP(=O)(O)OC[C@H]2C[C@@H](n3cc(C)c(=O)[nH]c3=O)C[C@@H]2O)cc1.N.N (some centres not stated)	6.28	36			74	
CCCCCCCCCCCCCCCCOC(=O)Oc1ccc(COP(=O)(OCc2ccc(OC(=O)CC)cc2)OP(=O)(O)OP(=O)(O)OC[C@@H]2C=C[C@H](n3cc(C)c(=O)[nH]c3=O)O2)cc1 (some centres not stated)	7.57					
CCCCCCCCCCCCCCCCOC(=O)Oc1ccc(COP(=O)(OCc2ccc(OC(=O)CC)cc2)OP(=O)(O)OP(=O)(O)OC[C@H]2O[C@@H](n3cc(C)c(=O)[nH]c3=O)C[C@@H]2O)cc1.N.N (some centres not stated)	4.97	14			76	
CCCCCCCCCCCCCCCCOC(=O)Oc1ccc(COP(=O)(OCc2ccc(OC(=O)CCCC)cc2)OP(=O)(O)OP(=O)(O)OC[C@H]2O[C@@H](n3cc(Cl)c(=O)[nH]c3=O)C[C@@H]2F)cc1.N.N (some centres not stated)	5.59	42			66	
CCCCCCCCCCCCCCCCOC(=O)Oc1ccc(COP(=O)(OCc2ccc(OC(=O)CC)cc2)OP(=O)(O)OP(=O)(O)OC[C@@H]2O[C@H](n3cc(F)c(N)nc3=O)CS2)cc1.N.N (some centres not stated)	7.59	35	1.49	2.6	45	
CCCCCCCCCCCCCCCCOC(=O)Oc1ccc(COP(=O)(OCc2ccc(OC(=O)CCCC)cc2)OP(=O)(O)OP(=O)(O)OC[C@H]2O[C@@H](n3cc(C)c(=O)[nH]c3=O)C[C@@H]2N=[N+]=[N-])cc1.N.N (some centres not stated)	8.43	42	5	4	84	
CCCCCCCCCCCCCCCCOC(=O)Oc1ccc(COP(=O)(OCc2ccc(OC(=O)CC)cc2)OP(=O)(O)OP(=O)(O)OC[C@H]2O[C@@H](n3cc(Cl)c(=O)[nH]c3=O)C[C@H]2N=[N+]=[N-])cc1.N.N (some centres not stated)	< 4.35	45	2.52	3	67	
CCCCCCCCCCCCCCCCOC(=O)Oc1ccc(COP(=O)(OCc2ccc(OC(=O)CCCC)cc2)OP(=O)(O)OP(=O)(O)OC[C@@H]2O[C@H](n3cc(F)c(N)nc3=O)CS2)cc1.N.N (some centres not stated)	8.37	40.5	2.78	2.26	36	
CCCCCCCCCCCCCCCCOC(=O)Oc1ccc(COP(=O)(OCc2ccc(OC(=O)CC)cc2)OP(=O)(O)OP(=O)(O)OC[C@H]2O[C@@H](n3cc(/C=C/Br)c(=O)[nH]c3=O)C[C@@H]2O)cc1.N.N (some centres not stated)	4.95	43			56	
CCCCCCCCCCCCCCCCOC(=O)Oc1ccc(COP(=O)(OCc2ccc(OC(=O)CC)cc2)OP(=O)(O)OP(=O)(O)OC[C@H]2O[C@@H](n3cc(C)c(=O)[nH]c3=O)C[C@@H]2N=[N+]=[N-])cc1.N.N (some centres not stated)	8.03	48			83	
CCCCCCCCCCCCCCCCOC(=O)Oc1ccc(COP(=O)(O)OP(=O)(O)OP(=O)(O)OC[C@H]2O[C@@H](n3cc(Cl)c(=O)[nH]c3=O)C[C@@H]2F)cc1	5.60	54				
[N-]=[N+]=N[C@@H]1C[C@H](n2cc(Cl)c(=O)[nH]c2=O)O[C@@H]1CO	< 4.00	> 100				
CCCCCCCCCCCCCCCCOC(=O)Oc1ccc(COP(=O)(OCc2ccc(OC(=O)CC)cc2)OP(=O)(O)OP(=O)(O)OC[C@H]2O[C@@H](n3cc(Cl)c(=O)[nH]c3=O)C[C@@H]2F)cc1.N.N (some centres not stated)	5.89	42	1.64		56	
CCCCCCCCCCCCCCCCOC(=O)Oc1ccc(COP(=O)(OCc2ccc(OC(=O)CCCC)cc2)OP(=O)(O)OP(=O)(O)OC[C@@H]2CC[C@H](n3cnc4c(=O)[nH]cnc43)O2)cc1.N.N (some centres not stated)	6.03	43	1.57	3.5	41	
CCCCCCCCCCCCCCCCOC(=O)Oc1ccc(COP(=O)(OCc2ccc(OC(=O)CCCC)cc2)OP(=O)(O)OP(=O)(O)OC[C@@H]2C=C[C@H](n3cc(C)c(=O)[nH]c3=O)O2)cc1 (some centres not stated)	7.49					
CCCCCCCCCCCCCCCCOC(=O)Oc1ccc(COP(=O)(OCc2ccc(OC(=O)CC)cc2)OP(=O)(O)OP(=O)(O)OC[C@H]2O[C@@H](n3ccc(=O)[nH]c3=O)C[C@H]2N=[N+]=[N-])cc1.N.N (some centres not stated)	< 4.36	44	1.54		68	
[N-]=[N+]=N[C@@H]1C[C@H](n2ccc(=O)[nH]c2=O)O[C@@H]1CO	< 3.60	> 250				
O=c1[nH]c(=O)n([C@H]2C[C@H](O)[C@@H](CO)O2)cc1/C=C/Br [BRIVUDINE]	< 3.60	207				
O=c1[nH]cnc2c1ncn2[C@H]1CC[C@@H](CO)O1 [DIDANOSINE]	4.80	> 250				
Cc1cn([C@H]2C[C@H](O)[C@@H](CO)O2)c(=O)[nH]c1=O [DOXRIBTIMINE]	5.39	10.6				
Nc1nc(=O)n([C@@H]2CS[C@H](CO)O2)cc1F [EMTRICITABINE]	8.00					> 100
O=c1[nH]c(=O)n([C@H]2C[C@H](F)[C@@H](CO)O2)cc1Cl [RALURIDINE]	< 3.60	188				
Cc1cn([C@H]2C=C[C@@H](CO)O2)c(=O)[nH]c1=O [STAVUDINE]	6.37					> 50
Cc1cn([C@H]2C[C@H](N=[N+]=[N-])[C@@H](CO)O2)c(=O)[nH]c1=O [ZIDOVUDINE]	8.30	> 100				

— ChEMBL document CHEMBL4610119, “Lipophilic Triphosphate Prodrugs of Various Nucleoside Analogues” (J Med Chem, 2020)
